From patent publication US20230263822A1, “MODULATION OF FACTOR 11 EXPRESSION” (Ionis Pharmaceuticals, Inc., priority 2008, published 2023)
Strand notation (5' to 3'): a small letter for the sugar, then the base; units joined by * are phosphorothioate-linked, units joined directly phosphodiester-linked; [ ] holds rarer units or linkages, { } end groups; capitals alone tell only the bases. e = 2'-O-(2-methoxyethyl) (MOE); [5mC] = 5-methylcytosine; d = 2'-deoxy (DNA)

Assays:
blood coagulation = test: PT and aPTT assay in cynomolgus monkeys (Example 45); type: in vivo; settings: escalating dose regimen, platelet poor plasma
Protocol: Groups, each consisting of two male and three female monkeys, were injected subcutaneously with ISIS 416838, ISIS 416850, ISIS 416858, ISIS 416864, or ISIS 417002 in escalating doses. Antisense oligonucleotide was administered to the monkeys at 5 mg/kg three times per a week for week 1; 5 mg/kg twice per week for weeks 2 and 3; 10 mg/kg three times per week for week 4; 10 mg/kg twice per week for weeks 5 and 6; 25 mg/kg three times per week for week 7; and 25 mg/kg twice per week for weeks 8, 9, 10, 11, and 12. One control group, consisting of two male and three female monkeys, was injected subcutaneously with PBS according to the same dosing regimen. An additional experimental group, consisting of two male and three female monkeys, was injected subcutaneously with ISIS 416850 in a chronic, lower dose regimen. Antisense oligonucleotide was administered to the monkeys at 5 mg/kg three times per week for week 1; 5 mg/kg twice per week for week 2 and 3; 10 mg/kg three times per week for week 4; and 10 mg/kg twice per week for weeks 5 to 12. Body weights were measured weekly. Blood samples were collected 14 days and 5 days before the start of treatment and subsequently once per week for Factor 11 protein activity analysis in plasma, fibrinogen measurement, PT and aPTT measurements, bleeding times, and measurement of various hematologic factors. On day 85, the monkeys were euthanized by exsanguination while under deep anesthesia, and organs harvested for further analysis.
Blood samples were collected in tubes containing sodium citrate. PT and aPTT were determined in duplicate with an ACL 9000 coagulation instrument (Instrumentation Laboratory, Italy). The results were interpolated on a standard curve of serial dilutions citrated control monkey plasma tested to give a reported result in percent normal.
Prothrombin Time (PT) and Activated Partial Thromboplastin Time (aPTT) were measured using platelet poor plasma (PPP) from monkeys treated with ISIS oligonucleotides. PT and aPTT values are provided in Tables 116 and 117 and are reported as International Normalized Ratio (INR) values. INR values for PT and aPTT were determined by dividing the PT or aPTT value for each experimental group by the PT or aPTT for the PBS treated group. This ratio was then raised to the power of the International Sensitivity Index (ISI) of the tissue factor used. The ISIS oligonucleotide, ISIS 416850, given with the chronic dose regimen is distinguished from the other oligonucleotides with an asterisk (*).

human Factor 11 mRNA = test: Dose-dependent inhibition of human Factor 11 in HepG2 cells, electroporation 123.46-10,000 nM (Example 31); type: cell-based; settings: for Percent inhibition of Factor 11 mRNA at 123.47 nM / Percent inhibition of Factor 11 mRNA at 370.37 nM / IC50: electroporation; for Percent inhibition of Factor 11 mRNA at 123.47 nM / Percent inhibition of Factor 11 mRNA at 370.37 nM / Percent inhibition of Factor 11 mRNA at 1,111.11 nM / Percent inhibition of Factor 11 mRNA at 3,333.33 nM / Percent inhibition of Factor 11 mRNA at 10,000.0 nM: approx. 16 hours, relative to untreated control cells; for Percent inhibition of Factor 11 mRNA at 1,111.11 nM: electroporation, 1,111.11 nM; for Percent inhibition of Factor 11 mRNA at 3,333.33 nM: electroporation, 3,333.33 nM; for Percent inhibition of Factor 11 mRNA at 10,000.0 nM: electroporation, 10,000.0 nM; for IC50: Factor 11 mRNA expression
In short: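 HepG2 cells were electroporated with antisense oligonucleotide at 123.46, 370.37, 1,111.11, 3,333.33 and 10,000 nM and harvested about 16 hours later. Factor 11 mRNA was quantified by qRT-PCR and normalised to total RNA (RIBOGREEN). Inhibition is expressed relative to untreated cells.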

Substance	PT ratio (INR) (blood coagulation; day 8)	aPTT ratio (INR) (blood coagulation; day 8)	PT ratio (INR) (blood coagulation; day 15)	aPTT ratio (INR) (blood coagulation; day 15)	PT ratio (INR) (blood coagulation; day 22)	aPTT ratio (INR) (blood coagulation; day 22)	PT ratio (INR) (blood coagulation; day 29)	aPTT ratio (INR) (blood coagulation; day 29)	PT ratio (INR) (blood coagulation; day 36)	aPTT ratio (INR) (blood coagulation; day 36)	PT ratio (INR) (blood coagulation; day 43)	aPTT ratio (INR) (blood coagulation; day 43)	PT ratio (INR) (blood coagulation; day 50)	aPTT ratio (INR) (blood coagulation; day 50)	Percent inhibition of Factor 11 mRNA at 123.47 nM (human Factor 11 mRNA)	Percent inhibition of Factor 11 mRNA at 370.37 nM (human Factor 11 mRNA)	Percent inhibition of Factor 11 mRNA at 1,111.11 nM (human Factor 11 mRNA)	Percent inhibition of Factor 11 mRNA at 3,333.33 nM (human Factor 11 mRNA)	Percent inhibition of Factor 11 mRNA at 10,000.0 nM (human Factor 11 mRNA)	IC50 (human Factor 11 mRNA)	other results
ISIS 417002: MOE gapmer, nucleobases 1275 to 1318 of SEQ ID NO: 1 (Table 8) (antisense GGTGCACAGTTTCTGGCAGG; MOE gapmer, wing and gap sizes not given here)	1.02	1.05	1.04	1.03	1.04	1.16	1.01	1.11	1.05	1.18	1.03	1.06	0.99	1.18	–	–	–	–	–	–	PT ratio (INR) (blood coagulation; day 57): 1.03; aPTT ratio (INR) (blood coagulation; day 57): 1.22; PT ratio (INR) (blood coagulation; day 64): 1.03; aPTT ratio (INR) (blood coagulation; day 64): 1.11; PT ratio (INR) (blood coagulation; day 71): 0.99; aPTT ratio (INR) (blood coagulation; day 71): 1.16; PT ratio (INR) (blood coagulation; day 78): 1.02; aPTT ratio (INR) (blood coagulation; day 78): 1.18; PT ratio (INR) (blood coagulation; day 85): 1.02; aPTT ratio (INR) (blood coagulation; day 85): 1.20; PT ratio (INR) (blood coagulation; day −5): 1.00; aPTT ratio (INR) (blood coagulation; day −5): 1.00; PT ratio (INR) (blood coagulation; day −14): 1.00; aPTT ratio (INR) (blood coagulation; day −14): 1.00
416858 (antisense ACGGCATTGGTGCACAGTTT; 5-10-5 gapmer, further chemistry not given here) [compound 416858]	–	–	–	–	–	–	–	–	–	–	–	–	–	–	0%	27%	36%	64%	70%	2200 nM	–
445531 (antisense eG*eG*e[5mC]*eA*eT*dT*dG*dG*dT*dG*d[5mC]*dA*d[5mC]*eA*eG*eT*eT*eT) [compound 445531]	–	–	–	–	–	–	–	–	–	–	–	–	–	–	8%	16%	52%	61%	77%	1800 nM	–
ISIS 416838: MOE gapmer, nucleobases 1018 to 1042 of SEQ ID NO: 1 (Table 6) (antisense GCAACCGGGATGATGAGTGC; MOE gapmer, wing and gap sizes not given here)	1.03	1.07	1.03	1.05	1.07	1.20	1.03	1.19	1.05	1.20	1.03	1.18	1.02	1.25	–	–	–	–	–	–	PT ratio (INR) (blood coagulation; day 57): 1.04; aPTT ratio (INR) (blood coagulation; day 57): 1.21; PT ratio (INR) (blood coagulation; day 64): 1.04; aPTT ratio (INR) (blood coagulation; day 64): 1.18; PT ratio (INR) (blood coagulation; day 71): 1.02; aPTT ratio (INR) (blood coagulation; day 71): 1.15; PT ratio (INR) (blood coagulation; day 78): 1.04; aPTT ratio (INR) (blood coagulation; day 78): 1.19; PT ratio (INR) (blood coagulation; day 85): 1.05; aPTT ratio (INR) (blood coagulation; day 85): 1.22; PT ratio (INR) (blood coagulation; day −5): 1.00; aPTT ratio (INR) (blood coagulation; day −5): 1.00; PT ratio (INR) (blood coagulation; day −14): 1.00; aPTT ratio (INR) (blood coagulation; day −14): 1.00
416856 (antisense GGCATTGGTGCACAGTTTCT; 5-10-5 gapmer, further chemistry not given here) [compound 416856]	–	–	–	–	–	–	–	–	–	–	–	–	–	–	12%	23%	35%	59%	83%	1600 nM	–
416850 (antisense TGCACAGTTTCTGGCAGGCC; 5-10-5 gapmer, further chemistry not given here) [compound 416850]	–	–	–	–	–	–	–	–	–	–	–	–	–	–	0%	12%	36%	74%	73%	2800 nM	–
